This passage reports IC50 results from patent US20260274833A1 (NiKang Therapeutics, Inc., priority 2022, published 2026).

Usually IC50 stands for the concentration at which inhibition is half-maximal.

Each structure is given as a SMILES string.

The assay concerns the target T1, CDK2 (Homo sapiens, UniProt P24941).
T1 construct: endogenous in cells; host or cells: OVCAR3 cells
The experiment in a line: Phospho-RB measurement in OVCAR3 cells (HTRF phospho-RB cellular kit). In kind it is cell-based. Particulars: inhibition of RB phosphorylation at S807/811 (HTRF, TR-FRET ratio 665/620), 24 h compound treatment, 0.3 to 10,000 nM. An outline of the steps:
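IC50 came from a four-parameter logistic fit of the DMSO-normalized TR-FRET ratio (665/620 nm). That ratio reflects RB phosphorylation at S807/811, read with an HTRF antibody pair 4 h after adding lysate at room temperature.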
`CC(C)(C)c1nc(-c2cccc(NS(=O)(=O)N3CC4CC4C3)c2F)c(-c2ccnc(NC3CCN(S(=O)(=O)N4CCNCC4)CC3)n2)s1` (stereo not drawn) [Example 155, N-(3-(2-(tert-butyl)-5-(2-((1-(piperazin-1-ylsulfonyl)piperidin-4-yl)amino)-pyrimidin-4-yl)thiazol-4-yl)-2-fluorophenyl)-3-azabicyclo[3.1.0]-hexane-3-sulfonamide]: the IC50 was determined as 1060 nM.

As to `CN(C)CCN(C)S(=O)(=O)N1CCC(Nc2nccc(-c3sc(C(C)(C)C)nc3-c3cccc(NS(=O)(=O)N4Cc5cccnc5C4)c3F)n2)CC1` [Example 121, N-(3-(2-(tert-butyl)-5-(2-((1~(N-(2-(dimethylamino)ethyl)-N-methylsulfamoyl)-piperidin-4-yl)amino)-pyrimidin-4-yl)thiazol-4-yl)-2-fluoro-phenyl)-5,7-dihydro-6H-pyrrolo[3,4-b]-pyridine-6-sulfonamide], the IC50 is 265 nM.

As to `CN(C)Cc1cccc2c1CN(S(=O)(=O)Nc1cccc(-c3nc(C(C)(C)C)sc3-c3ccnc(NC4CCN(S(C)(=O)=O)CC4)n3)c1F)C2` [Example 167, N-(3-(2-(tert-butyl)-5-(2-((1-(methylsulfonyl)-piperidin-4-yl)amino)-pyrimidin-4-yl)thiazol-4-yl)-2-fluoro-phenyl)-4-((dimethylamino)-methyl)-isoindoline-2-sulfonamide], the IC50 is 410 nM.

Consider `CC1(c2nc(-c3cccc(NS(=O)(=O)N4CCc5ccc(C#N)cc54)c3F)c(-c3ccnc(NC4CC5(C4)CS(=O)(=O)C5)n3)s2)CCOCC1` [Example 5, 6-cyano-N-(3-(5-(2-((2,2-dioxido-2-thiaspiro-[3.3]heptan-6-yl)amino)-pyrimidin-4-yl)-2-(4-methyltetrahydro-2H-pyran-4-yl)thiazol-4-yl)-2-fluorophenyl) indoline-1-sulfonamide], for which the IC50 turned out to be 32.7 nM.

`CN(C)c1cccc2c1CN(S(=O)(=O)Nc1cccc(-c3nc(C(C)(C)C)sc3-c3ccnc(NC4CC5(C4)CS(=O)(=O)C5)n3)c1F)C2` [Example 206, N-(3-(2-(tert-butyl)-S-(2-((2,2-dioxido-2-thiaspiro[3.3]heptan-6-yl)amino)-pyrimidin-4-yl)thiazol-4-yl)-2-fluoro-phenyl)-4-(dimethylamino) isoindoline-2-sulfonamide]: the IC50 came to 619 nM.

As for `CS(=O)(=O)[C@H]1CC[C@H](Nc2nccc(-c3sc(N4C5CCC4CC(F)(F)C5)nc3-c3cccc(NS(=O)(=O)N4CCc5ccc(C(F)(F)F)cc54)c3F)n2)CC1` [Example 298, N-(3-(2-(3,3-difluoro-8-azabicyclo-[3.2.1]octan-8-yl)-5-(2-(((1r,4r)-4-(methylsulfonyl)cyclohexyl)amino)-pyrimidin-4-yl)thiazol-4-yl)-2-fluoro-phenyl)-6-(trifluoromethyl)-indoline-1-sulfonamide], the IC50 worked out at 130 nM.

Turning to `CN1CC2CCC(C1)N2c1nc(-c2cccc(NS(=O)(=O)N3CCc4ccc(C(F)(F)F)cc43)c2F)c(-c2ccnc(NC3CC4(C3)CS(=O)(=O)C4)n2)s1` [Example 292, N-(3-(5~(2-((2,2-dioxido-2-thiaspiro-[3.3]heptan-6-yl)amino)pyrimidin-4-yl)-2-(3-methyl-3,8-diazabicyclo[3.2.1]-octan-8-yl)thiazol-4-yl)-2-fluorophenyl)-6-(trifluoromethyl) indoline-1-sulfonamide], the IC50 was 29.9 nM.

`CC(C)(C)c1nc(-c2cccc(NS(=O)(=O)N3Cc4cccc(C5CCCCC5)c4C3)c2F)c(-c2ccnc(NC3CCN(S(C)(=O)=O)CC3)n2)s1` [Example 228, N-(3-(2-(tert-butyl)-5-(2-((1-(methylsulfonyl)-piperidin-4-yl)amino)-pyrimidin-4-yl)thiazol-4-yl)-2-fluoro-phenyl)-4-cyclohexyliso-indoline-2-sulfonamide]: the IC50 amounted to 1510 nM.

On to `CN1CCN(S(=O)(=O)N2CCC(Nc3nccc(-c4sc(C(C)(C)C)nc4-c4cccc(NS(=O)(=O)N5CCNc6ccccc6C5)c4F)n3)CC2)CC1` [Example 138, N-(3-(2-(tert-butyl)-5-(2-((1-((4-methylpiperazin-1-yl)sulfonyl)piperidin-4-yl)amino)pyrimidin-4-yl)thiazol-4-yl)-2~fluorophenyl)-1,2,3,5-tetrahydro-4H-benzo[e][1,4] diazepine-4-sulfonamide], for which the IC50 turned out to be 396 nM.

On to `CC(C)(C)c1nc(-c2cccc(NS(=O)(=O)N3CCCCC3c3ccccc3)c2F)c(-c2ccnc(NC3CCN(S(C)(=O)=O)CC3)n2)s1` (stereo not drawn) [Example 67, N-(3-(2-(tert-butyl)-5-(2-((1-(methylsulfonyl)-piperidin-4-yl)amino)-pyrimidin-4-yl)thiazol-4-yl)-2-fluoro-phenyl)-2-phenylpiperidine-1-sulfonamide], for which the IC50 turned out to be 8260 nM.

As for `CC(C)(C)c1nc(-c2cccc(NS(=O)(=O)N3Cc4cccc(C#N)c4C3)c2F)c(-c2ccnc(NC3CCN(S(C)(=O)=O)CC3)n2)s1` [Example 185, N-(3-(2-(tert-butyl)-5-(2-((1-(methylsulfonyl)-piperidin-4-yl)amino)-pyrimidin-4-yl)thiazol-4-yl)-2-fluoro-phenyl)-4-cyanoisoindoline-2-sulfonamide], the concentration for half-maximal inhibition (IC50) was 55 nM.

Take `CC(C)(C)c1nc(-c2cccc(NS(=O)(=O)N3CCN(c4ccccc4)CC3)c2F)c(-c2ccnc(NC3CCN(S(C)(=O)=O)CC3)n2)s1` [Example 64, N-(3-(2-(tert-butyl)-5-(2-((1-(methylsulfonyl)-piperidin-4-yl)amino)-pyrimidin-4-yl)thiazol-4-yl)-2-fluoro-phenyl)-4-phenylpiperazine-1-sulfonamide]: the IC50 came to 735 nM.

For the compound `CC(C)(C)c1nc(-c2cccc(NS(=O)(=O)N3CCn4ccnc4C3)c2F)c(-c2ccnc(NC3CCN(S(C)(=O)=O)CC3)n2)s1` [Example 84, N-(3-(2-(tert-butyl)-5-(2-((1-(methylsulfonyl)-piperidin-4-yl)amino)-pyrimidin-4-yl)thiazol-4-yl)-2-fluoro-phenyl)-5,6-dihydroimidazo [1,2-a]-pyrazine-7(8H)-sulfonamide], the IC50 was 1920 nM.

Consider `CS(=O)(=O)[C@H]1CC[C@H](Nc2nccc(-c3sc(C45CC(C(F)(F)F)(C4)C5)nc3-c3cccc(NS(=O)(=O)N4CCc5ccc(C#N)cc54)c3F)n2)CC1` [Example 56, 6-cyano-N-(2-fluoro-3-(5-(2-(((1r,4r)-4-(methylsulfonyl)cyclohexyl)amino)-pyrimidin-4-yl)-2-(3-(trifluoromethyl)-bicyclo[1.1.1]-pentan-1-yl)thiazol-4-yl)phenyl)indoline-1-sulfonamide], for which the IC50 is 270 nM.

For `O=S1(=O)C[C@@H]2[C@H](C1)[C@H]2Nc1nccc(-c2sc(C34CC(C3)C4)nc2-c2cccc(NS(=O)(=O)N3Cc4ccc(CO)cc4C3)c2F)n1` [Example 11, N-(3-(2-(bicyclo [1.1.1]pentan-1-yl)-5-(2-(((1R,5S,6r)-3,3-dioxido-3-thiabicyclo-[3.1.0]hexan-6-yl)amino)pyrimidin-4-yl)thiazol-4-yl)-2-fluorophenyl)-5-(hydroxymethyl) isoindoline-2-sulfonamide], the IC50 came to 81 nM.

In the case of `O=S1(=O)CC2(CC(Nc3nccc(-c4sc(N5C6CCC5CN(CC(F)(F)F)C6)nc4-c4cccc(NS(=O)(=O)N5Cc6cccc(C(F)(F)F)c6C5)c4F)n3)C2)C1` [Example 40, N-(3-(5-(2-((2,2-dioxido-2-thiaspiro-[3.3]-heptan-6-yl)amino)pyrimidin-4-yl)-2-(3-(2,2,2-trifluoroethyl)-3,8-diazabicyclo[3.2.1]-octan-8-yl)thiazol-4-yl)-2-fluorophenyl)-4-(trifluoromethyl)-isoindoline-2-sulfonamide], the IC50 was determined as 192 nM.

`CC(C)(C)c1nc(-c2cccc(NS(=O)(=O)N3Cc4cccc(-c5cccc(C#N)c5)c4C3)c2F)c(-c2ccnc(NC3CCN(S(C)(=O)=O)CC3)n2)s1` [Example 227, N-(3-(2-(tert-butyl)-5-(2-((1-(methylsulfonyl)-piperidin-4-yl)amino)-pyrimidin-4-yl)thiazol-4-yl)-2-fluoro-phenyl)-4-(3-cyanophenyl)-isoindoline-2-sulfonamide]: the IC50 turned out to be 517 nM.

In the case of `CC(C)(C)c1nc(-c2cccc(NS(=O)(=O)N3CCOc4ncccc4C3)c2F)c(-c2ccnc(NC3CCN(S(C)(=O)=O)CC3)n2)s1` [Example 110, N-(3-(2-(tert-butyl)-5-(2-((1-(methylsulfonyl)-piperidin-4-yl)amino)-pyrimidin-4-yl)thiazol-4-yl)-2-fluoro-phenyl)-2,3-dihydropyrido [3,2-f][1,4]-oxazepine-4 (5H)-sulfonamide], the IC50 was 1030 nM.

Regarding `N#Cc1ccc2c(c1)N(S(=O)(=O)Nc1cccc(-c3nc(C45CC(C4)C5)sc3-c3ccnc(N[C@H]4[C@@H]5CS(=O)(=O)C[C@@H]54)n3)c1F)CC2` [Example 14, N-(3-(2-(bicyclo [1.1.1]pentan-1-yl)-5-(2-(((1R,5S,6r)-3,3-dioxido-3-thiabicyclo-[3.1.0]-hexan-6-yl)amino)pyrimidin-4-yl)thiazol-4-yl)-2-fluorophenyl)-6-cyanoindoline-1-sulfonamide], the IC50 is 124 nM.

On to `CC(C)(C)c1nc(-c2cccc(NS(=O)(=O)N3Cc4cc(F)c(F)cc4C3)c2F)c(-c2ccnc(NC3CCN(S(C)(=O)=O)CC3)n2)s1` [Example 77], for which the IC50 is 367 nM.

Turning to `CN(C)C(=O)c1ccc2c(c1)CN(S(=O)(=O)Nc1cccc(-c3nc(C(C)(C)C)sc3-c3ccnc(NC4CCN(S(C)(=O)=O)CC4)n3)c1F)C2` [Example 161, 2-(N-(3-(2-(tert-butyl)-5-(2-((1-(methyl-sulfonyl)piperidin-4-yl)amino)pyrimidin-4~yl)thiazol~4-yl)-2-fluorophenyl)-sulfamoyl)-N,N-dimethyl-isoindoline-5-carboxamide], the IC50 turned out to be 1800 nM.
